# Earlier results as cited in US8536378B2 (The Board of Trustees of the Leland Stanford Junior …, priority 2007, dated 2013).
# How the values were obtained:
# latent HIV-1 = details: fold more potent than prostratin
# latent HIV = details: latently infected CD4+ T cells
# [1] = test system: T-lymphoblastoid CEM-SS and C-8166 cell lines; details: in vitro
# [2] = compared with other phorbol esters such as PMA
# [3] = estimate in reference note 20
Compound,potency in activating latent HIV-1 relative to prostratin (latent HIV-1),downregulation of CD4 and CXCR4 receptors (CD4 and CXCR4 receptors),HIV gene expression / activation of latent HIV (latent HIV),CD4 receptors on cell surfaces (CD4 and CXCR4 receptors; CEM-SS and MT-4 cell lines),cytotoxicity: concentration up to which no sign of cytotoxicity was observed ([1]; CEM-SS and C-8166 cell lines) [µM],prostratin concentration at which cell viability was restored to the level of uninfected controls ([1]; HIV-infected CEM-SS and C-8166 cell lines),tumor-promoting activity [2],estimated oral bioavailability [3] [%]
"CC1=C[C@H]2[C@@]3(O)[C@H](C)C[C@]4(OC(=O)Cc5ccccc5)C([C@@H]3C=C(CO)C[C@]2(O)C1=O)C4(C)C (stereo partly drawn) [DPP, 12-deoxyphorbol-13-phenylacetate]",20-30 fold,downregulates CD4 and CXCR4 receptors at nanomolar concentrations,,,,,,
"CCCCCCCCCCCCCC(=O)O[C@@H]1[C@@H](C)[C@@]2(O)[C@@H](C=C(CO)C[C@]3(O)C(=O)C(C)=C[C@@H]23)[C@@H]2C(C)(C)[C@]12OC(C)=O [PMA, phorbol 12-myristate-13-acetate, reference compound]",,,activate latent HIV,,,,,
"CC(=O)O[C@@]12C[C@@H](C)[C@@]3(O)[C@@H](C=C(CO)C[C@]4(O)C(=O)C(C)=C[C@@H]34)[C@@H]1C2(C)C [prostratin, 12-deoxyphorbol-13-acetate]",,,induces HIV gene expression,significantly reduced,> 25,approximately 1 μM,does not exhibit the tumor-promoting activity,~28
